One assay addresses T1, human COX-2 (Homo sapiens, UniProt P35354).
T1 construct: expressed in transfected cells; host or cells: COS cells (stably transfected)
T1 sequence (P35354 18-604): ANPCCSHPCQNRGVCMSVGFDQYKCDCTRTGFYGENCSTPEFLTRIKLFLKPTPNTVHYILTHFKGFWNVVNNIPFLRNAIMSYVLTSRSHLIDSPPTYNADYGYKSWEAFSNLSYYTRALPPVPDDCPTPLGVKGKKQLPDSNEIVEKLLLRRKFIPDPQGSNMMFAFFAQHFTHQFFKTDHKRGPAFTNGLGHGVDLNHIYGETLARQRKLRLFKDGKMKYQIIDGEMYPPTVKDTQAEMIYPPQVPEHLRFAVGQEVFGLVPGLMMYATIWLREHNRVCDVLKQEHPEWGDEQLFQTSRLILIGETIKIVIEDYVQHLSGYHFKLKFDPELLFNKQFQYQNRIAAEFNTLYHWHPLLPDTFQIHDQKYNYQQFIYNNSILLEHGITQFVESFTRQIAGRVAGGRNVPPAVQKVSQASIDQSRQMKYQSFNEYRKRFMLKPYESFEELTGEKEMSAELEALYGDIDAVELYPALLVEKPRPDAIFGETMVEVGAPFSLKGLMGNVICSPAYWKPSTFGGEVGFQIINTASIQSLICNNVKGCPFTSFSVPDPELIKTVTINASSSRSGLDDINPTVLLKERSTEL
Put plainly: Cell based assay, COS cells stably transfected with human COX-2, PGE2 release. The note with it: inhibition of PGE2 release, 30 μM arachidonic acid. The procedure:
24 Hours prior to experiment, COS cells were transferred from the 175 cm^2 flasks in which they were grown, onto 24-well cell culture plates using the following procedure. The incubation medium (Dulbecco's modified eagles medium (DMEM) supplemented with heat-inactivated foetal calf serum (10% v/v), penicillin (100 IU/ml), streptomycin (100 μg/ml) and geneticin (600 μg/ml)) was removed from a flask of confluent cells (1 flask at confluency contains approximately 1×10^7 cells). 5 ml of phosphate buffered saline (PBS) was added to the flask to wash the cells. […] The flask was then removed from the incubator and 5 ml of fresh incubation medium was added. The contents of the flask was transferred to a 250 ml sterile container and the volume of incubation medium subsequently made up to 100 ml. 1 ml cell suspension was pipetted into each well of 4×24-well cell culture plates. The plates were then placed in an incubator (37° C., 95% air/5% CO2) overnight. If more than 1 flask of cells were required, the cells from the individual flasks were combined before being dispensed into the 24-well plates.
Following the overnight incubation, the incubation medium was completely removed from the 24-well cell culture plates and replaced with 250 μl fresh DMEM (37° C.). The test compounds were made up to 250× the required test concentration in DMSO and were added to the wells in a volume of 1 μl. Plates were then mixed gently by swirling and then placed in an incubator for 1 hour (37° C., 95% air/5% CO2). […] Plates were then incubated for a further 10 minutes, after which the incubation medium was removed from each well of the plates and stored at −20° C., prior to determination of prostaglandin E2 (PGE2) levels using enzyme immunoassay. […] The selectivity ratio of inhibition of COX-1 versus COX-2 was calculated by comparing respective IC50 values.

Assay [1] deals with T2, COX-1 (Homo sapiens, UniProt P23219). The assay is described as follows: Cell based assay, COS cells stably transfected with human COX-1, PGE2 release. The following applies: inhibition of PGE2 release, 30 μM arachidonic acid. Further details: expressed in transfected cells; host or cells: COS cells (stably transfected). The procedure: Inhibitory activity against human COX-1 and COX-2 was assessed in COS cells which had been stably transfected with EDNA for human COX-1 and human COX-2. 24 Hours prior to experiment, COS cells were transferred from the 175 cm^2 flasks in which they were grown, onto 24-well cell culture plates using the following procedure. The incubation medium (Dulbecco's modified eagles medium (DMEM) supplemented with heat-inactivated foetal calf serum (10% v/v), penicillin (100 IU/ml), streptomycin (100 μg/ml) and geneticin (600 μg/ml)) was removed from a flask of confluent cells (1 flask at confluency contains approximately 1×10^7 cells). 5 ml of phosphate buffered saline (PBS) was added to the flask to wash the cells. Having discarded the PBS, cells were then incubated with 5 ml trypsin for 5 minutes in an incubator (37°). The flask was then removed from the incubator and 5 ml of fresh incubation medium was added. The contents of the flask was transferred to a 250 ml sterile container and the volume of incubation medium subsequently made up to 100 ml. 1 ml cell suspension was pipetted into each well of 4×24-well cell culture plates. The plates were then placed in an incubator (37° C., 95% air/5% CO2) overnight. If more than 1 flask of cells were required, the cells from the individual flasks were combined before being dispensed into the 24-well plates.
T2 sequence (P23219 24-599): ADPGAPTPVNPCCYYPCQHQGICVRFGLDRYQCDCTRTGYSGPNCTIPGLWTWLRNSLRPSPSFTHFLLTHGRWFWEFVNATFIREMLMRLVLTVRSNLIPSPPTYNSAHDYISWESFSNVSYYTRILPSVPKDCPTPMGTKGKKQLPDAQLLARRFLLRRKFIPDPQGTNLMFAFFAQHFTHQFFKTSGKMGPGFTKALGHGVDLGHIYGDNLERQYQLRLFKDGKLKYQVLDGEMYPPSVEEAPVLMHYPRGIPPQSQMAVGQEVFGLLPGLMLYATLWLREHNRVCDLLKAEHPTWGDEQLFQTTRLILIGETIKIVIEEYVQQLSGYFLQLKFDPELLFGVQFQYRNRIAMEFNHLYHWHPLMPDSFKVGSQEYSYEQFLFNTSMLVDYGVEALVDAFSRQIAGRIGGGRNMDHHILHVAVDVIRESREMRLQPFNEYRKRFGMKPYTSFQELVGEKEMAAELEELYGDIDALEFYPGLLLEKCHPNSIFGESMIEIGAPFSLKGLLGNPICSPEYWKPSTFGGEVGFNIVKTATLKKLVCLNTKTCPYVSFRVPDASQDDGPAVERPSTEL
Following the overnight incubation, the incubation medium was completely removed from the 24-well cell culture plates and replaced with 250 μl fresh DMEM (37° C.). The test compounds were made up to 250× the required test concentration in DMSO and were added to the wells in a volume of 1 μl. Plates were then mixed gently by swirling and then placed in an incubator for 1 hour (37° C., 95% air/5% CO2). Following the incubation period, 10 μl of arachidonic acid (750 μM) was added to each well to give a final arachidonic acid concentration of 30 μM. […] The selectivity ratio of inhibition of COX-1 versus COX-2 was calculated by comparing respective IC50 values.

The target of a further assay is T3, microsomal h-COX2 (Homo sapiens, UniProt P35354).
T3 construct: made in house; host or cells: baculovirus infected SF9 cells (microsomal preparation)
T3 sequence (P35354 18-604): T1 sequence (P35354 18-604)
Put plainly: Microsomal assay, microsomal preparation from baculovirus infected SF9 cells, PGE2 by EIA. Type of assay: biochemical. The following applies: 0.1 μM arachidonic acid, read-out: COX-2: IC50. On the procedure:
Inhibitory activity against microsomal h-COX2 was assessed against a microsomal preparation from baculovirus infected SF9 cells. An aliquot of microsomal preparation was thawed slowly on ice and a 1/40,000 dilution prepared from it into the assay buffer (sterile water, degassed with argon containing 100 mM HEPES (pH 7.4), 10 mM EDTA (pH7.4), 1 mM phenol, 1 mM reduced glutathione, 20 mg/ml gelatin and 0.001 mM Hematin). Once diluted the enzyme solution was then sonicated for 5 seconds (Branson sonicator, setting 4, 1 cm tip) to ensure a homogeneous suspension. 155 μl enzyme solution was then added to each well of a 96-well microtitre plate containing either 5 μl test compound (40× required test concentration) or 5 μl DMSO for controls. Plates were then mixed and incubated at room temperature for 1 hour. Following the incubation period, 40 μl of 0.5 μM arachidonic acid was added to each well to give a final concentration of 0.1 μM. Plates were then mixed and incubated for exactly 10 minutes (room temperature) prior to addition of 25 μl 1M HCl (hydrochloric acid) to each well to stop the reaction. 25 μl of 1M NaOH (sodium hydroxide) was then added to each well to neutralise the solution prior to determination of PGE2 levels by enzyme immunoassay (EIA).

The target in assay [2] is T2, COX-1. Put plainly: Microsomal assay, COX-1. The assay is classed as biochemical.

Usually IC50 stands for the midpoint of a concentration-inhibition curve. With `CS(=O)(=O)c1ccc(-c2cc(C(F)(F)F)nc(NC3CCCC3)n2)cc1` [Example 1, N-cyclopentyl-4-[4-(methylsulfonyl)phenyl]-6-(trifluoromethyl)pyrimidin-2-amine], the IC50 against human COX-2 was 0.1 nM; at COX-1 [1], more than 24600 nM.

With `CS(=O)(=O)c1ccc(-c2cc(C(F)(F)F)nc(NC3CCCCC3)n2)cc1` [Example 2, N-cyclohexyl-4-[4-(methylsulfonyl)phenyl]-6-(trifluoromethyl)pyrimidin-2-amine], the IC50 against human COX-2 was 0.5 nM; on COX-1 [1] it was more than 58400 nM.

On to `CC(C)CNc1nc(-c2ccc(S(C)(=O)=O)cc2)cc(C(F)(F)F)n1` [Example 8, N-isobutyl-4-[4-(methylsulfonyl)phenyl]-6-(trifluoromethyl)pyrimidin-2-amine], for which the IC50 against human COX-2 is 2 nM; on microsomal h-COX2, 12 nM; against COX-1 [2], more than 100000 nM; against COX-1 [1], more than 66000 nM.

`CS(=O)(=O)c1ccc(-c2cc(C(F)(F)F)nc(NCC3CCC3)n2)cc1` [Example 31, N-(cyclobutylmethyl)-4-[4-(methylsulfonyl)phenyl]-6-(trifluoromethyl)pyrimidin-2-amine]: the figures for the IC50 on microsomal h-COX2 and at COX-1 [2] were less than 1 nM and more than 100000 nM, respectively.

The values above are taken from patent US6780869B1, “Pyrimidine derivatives” (SmithKline Beecham Corporation, priority 1999, dated 2004).
